We go through five compounds from US7332521B2, “Substituted indoles” (Wyeth, priority 2003, dated 2008).

The target of experiment [1] is T1, recombinant human plasminogen activator inhibitor-1 (PAI-1) (Homo sapiens, UniProt P05121).
T1 construct: purchased Molecular Innovations, Royal Oak, Mich
Briefly: Primary screen for the PAI-1 inhibition (chromogenic tPA activity). The note with it: pH 6.6 buffer; for inhibition at 10 µM: 10 μM test compound; for inhibition at 25 µM: 25 μM test compound. It is filed as biochemical. The protocol: Test compounds are dissolved in DMSO at a final concentration of 10 mM, then diluted 100× in physiologic buffer. The inhibitory assay is initiated by the addition of the test compound (1-100 μM final concentration, maximum DMSO concentration of 0.2%) in a pH 6.6 buffer containing 140 nM recombinant human plasminogen activator inhibitor-1 (PAI-1; Molecular Innovations, Royal Oak, Mich.). Following a 1 hour incubation at room temperature, 70 nM of recombinant human tissue plasminogen activator (tPA) is added, and the combination of the test compound, PAI-1 and tPA is incubated for an additional 30 minutes. Following the second incubation, Spectrozyme-tPA (American Diagnostica, Greenwich, Conn.), a chromogenic substrate for tPA, is added and absorbance read at 405 nm at 0 and 60 minutes. Relative PAI-1 inhibition is equal to the residual tPA activity in the presence of the test compound and PAI-1. Control treatments include the complete inhibition of tPA by PAI-1 at the molar ratio employed (2:1), and the absence of any effect of the test compound on tPA alone.

A further experiment concerns the target human PAI-1 (Homo sapiens, UniProt P05121). The experiment can be described thus: Assay for determining IC50 of inhibition of PAI-1 (active PAI-1 bound to tPA-coated plate). It is filed as binding. The settings on record: pH 7.5 buffer. The protocol:
This assay is based upon the non-SDS dissociable interaction between tPA and active PAI-1. Assay plates are initially coated with human tPA (10 μg/ml). Test compounds of the present invention are dissolved in DMSO at 10 mM, then diluted with physiologic buffer (pH 7.5) to a final concentration of 1-50 μM. Test compounds are incubated with human PAI-1 (50 ng/ml) for 15 minutes at room temperature. The tPA-coated plate is washed with a solution of 0.05% Tween 20 and 0.1% BSA, then the plate is blocked with a solution of 3% BSA. An aliquot of the subtituted indole/PAI-1 solution is then added to the tPA-coated plate, incubated at room temperature for 1 hour, and washed. Active PAI-1 bound to the plate is assessed by adding an aliquot of a 1:1000 dilution of the 33B8 monoclonal antibody against human PAI-1, and incubating the plate at room temperature for 1 hour (Molecular Innovations, Royal Oak, Mich.). […] The plate is incubated 45 minutes at room temperature, and color development is determined at OD405nm. The quantitation of active PAI-1 bound to tPA at varying concentrations of the test compound is used to determine the IC50. Results are analyzed using a logarithmic best-fit equation. The assay sensitivity is 5 ng/ml of human PAI-1 as determined from a standard curve ranging from 0-100 ng/ml.

T1 sequence (P05121 24-402): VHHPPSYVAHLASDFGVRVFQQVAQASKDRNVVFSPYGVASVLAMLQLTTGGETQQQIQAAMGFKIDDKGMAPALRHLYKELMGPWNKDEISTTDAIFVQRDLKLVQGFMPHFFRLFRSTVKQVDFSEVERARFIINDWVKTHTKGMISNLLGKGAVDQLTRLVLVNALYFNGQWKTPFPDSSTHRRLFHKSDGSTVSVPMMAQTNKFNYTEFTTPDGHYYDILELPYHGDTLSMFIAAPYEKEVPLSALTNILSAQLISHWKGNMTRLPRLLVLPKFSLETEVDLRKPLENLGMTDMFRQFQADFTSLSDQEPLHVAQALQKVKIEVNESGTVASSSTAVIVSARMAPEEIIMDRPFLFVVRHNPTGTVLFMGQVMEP
Chain of human PAI-1 (P05121 24-402): as above

Regarding `O=C(O)c1c(-c2ccccc2)c2cc(Nc3cccc4c3sc3ccccc34)ccc2n1Cc1ccccc1` [Compound 4, 1-benzyl-5-(dibenzo[b,d]thien-4-ylamino)-3-phenyl-1H-indole-2-carboxylic acid], in experiment [1], the inhibition at 10 µM was 39% and the inhibition at 25 µM was found to be 66%.
For `O=C(O)c1c(-c2ccccc2)c2cc(Nc3ccc(-c4ccccc4)cc3)ccc2n1Cc1ccccc1` [Compound 3, 1-benzyl-5-(1,1′-biphenyl-4-ylamino)-3-phenyl-1H-indole-2-carboxylic acid] the same measures were 36% and 71%.
As for `CC(C)(C)c1ccc(Nc2ccc3c(c2)c(-c2ccccc2)c(C(=O)O)n3Cc2ccc(-c3ccccc3)cc2)cc1` [Compound 5, 1-(1,1′-biphenyl-4-ylmethyl)-5-[(4-tert-butylphenyl)amino]-3-phenyl-1H-indole-2-carboxylic acid], the IC50 against human PAI-1 came to 12 µM. Further, in experiment [1], the inhibition at 10 µM was found to be 52% and the inhibition at 25 µM was 80%.
In the case of `CC(C)(C)c1ccc(Nc2ccc3c(c2)c(-c2ccccc2)c(C(=O)O)n3Cc2ccccc2)cc1` [Compound 2, 1-benzyl-5-[(4-tert-butylphenyl)amino]-3-phenyl-1H-indole-2-carboxylic acid], in experiment [1], the inhibition at 10 µM amounted to 45% and the inhibition at 25 µM is 73%.
Regarding `Cc1cccc(Nc2ccc3c(c2)c(-c2ccccc2)c(C(=O)O)n3Cc2ccccc2)c1` [Compound 1, 1-benzyl-5-[(3-methylphenyl)amino]-3-phenyl-1H-indole-2-carboxylic acid], in experiment [1], the inhibition at 10 µM came out at 24% and the inhibition at 25 µM was found to be 69%.
